Legend:
[1] = biological target: hNurr1_RXRγFL (NURR1/RXRγ heterodimer) (Homo sapiens, UniProt P43354+P48443); assay: Transactivation assay in Cos-7 cells, NURR-1-Gal4 / RXRγ, luciferase reporter; assay type: cell-based; conditions: for Emax: COS-7, read-out: hNurr1_RXRγFL Eff (%), efficacy in % relative to the reference XCT0135908 at 2·10^−5 M (=100%); for EC50: Cos-7 cells, overnight incubation; for hNurr1_RXRγFL Eff (%): efficacy in % relative to the reference XCT0135908 at 2·10^−5 M (=100%)
Outline: (§1)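 Cos-7 cells co-transfected with human NURR-1-Gal4 chimera, human RXRα or RXRγ, and 5Gal4pGL3-TK-Luc reporter; compounds added at 10^−4 to 3·10^−10 M final, overnight incubation, luciferase read. Induction over each heterodimer's baseline expressed as % of reference RXR agonist XCT0135908 (2·10^−5 M) taken as 100%.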

[2] = biological target: hNurr1_RXRαFL (NURR1/RXRα heterodimer) (Homo sapiens, UniProt P19793+P43354); assay: Transactivation assay in Cos-7 cells, NURR-1-Gal4 / RXRα, luciferase reporter; assay type: cell-based; conditions: for Emax: COS-7, read-out: hNurr1_RXRαFL Eff (%), efficacy in % relative to the reference XCT0135908 at 2·10^−5 M (=100%); for EC50: Cos-7 cells, overnight incubation; for hNurr1_RXRαFL Eff (%): efficacy in % relative to the reference XCT0135908 at 2·10^−5 M (=100%)
Outline: as §1

Chain of hNurr1_RXRαFL (NURR1/RXRα heterodimer) (P19793 whole entry, the tested form may be a part): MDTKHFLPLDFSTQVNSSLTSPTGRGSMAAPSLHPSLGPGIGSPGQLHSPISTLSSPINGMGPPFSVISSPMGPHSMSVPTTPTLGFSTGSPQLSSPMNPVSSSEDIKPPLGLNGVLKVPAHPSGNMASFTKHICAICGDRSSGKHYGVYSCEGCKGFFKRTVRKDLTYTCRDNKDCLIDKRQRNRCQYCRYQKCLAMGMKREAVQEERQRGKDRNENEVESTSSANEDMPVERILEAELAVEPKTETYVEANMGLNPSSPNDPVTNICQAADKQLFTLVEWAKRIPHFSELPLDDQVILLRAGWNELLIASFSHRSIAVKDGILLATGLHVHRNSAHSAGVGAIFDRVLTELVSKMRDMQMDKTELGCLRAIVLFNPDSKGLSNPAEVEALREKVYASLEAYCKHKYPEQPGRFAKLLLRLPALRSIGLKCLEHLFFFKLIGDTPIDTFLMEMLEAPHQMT
Chain of hNurr1_RXRαFL (NURR1/RXRα heterodimer) (P43354 328-598): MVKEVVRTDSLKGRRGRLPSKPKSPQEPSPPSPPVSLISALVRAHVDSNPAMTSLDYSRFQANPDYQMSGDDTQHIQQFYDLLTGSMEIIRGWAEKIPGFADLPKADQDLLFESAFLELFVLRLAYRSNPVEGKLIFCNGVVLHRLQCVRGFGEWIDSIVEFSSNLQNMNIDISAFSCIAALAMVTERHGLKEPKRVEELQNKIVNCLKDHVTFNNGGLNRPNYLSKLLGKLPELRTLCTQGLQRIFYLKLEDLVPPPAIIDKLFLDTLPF
Chain of hNurr1_RXRγFL (NURR1/RXRγ heterodimer) (P43354 328-598): as above
Chain of hNurr1_RXRγFL (NURR1/RXRγ heterodimer) (P48443 whole entry, the tested form may be a part): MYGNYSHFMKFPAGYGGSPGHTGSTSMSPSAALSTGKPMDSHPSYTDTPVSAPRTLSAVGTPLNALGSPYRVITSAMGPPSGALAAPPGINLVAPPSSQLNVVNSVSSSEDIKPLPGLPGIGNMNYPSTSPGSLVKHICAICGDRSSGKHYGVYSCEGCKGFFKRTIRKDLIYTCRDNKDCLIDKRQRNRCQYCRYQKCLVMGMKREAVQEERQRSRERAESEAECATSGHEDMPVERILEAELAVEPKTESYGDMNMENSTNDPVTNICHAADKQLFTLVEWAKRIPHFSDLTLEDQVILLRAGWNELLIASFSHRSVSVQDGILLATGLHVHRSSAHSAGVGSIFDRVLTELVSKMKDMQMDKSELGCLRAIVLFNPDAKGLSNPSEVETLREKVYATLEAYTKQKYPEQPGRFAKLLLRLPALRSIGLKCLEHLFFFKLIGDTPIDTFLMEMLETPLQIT

## O=C(O)c1ccc(Cc2cc3cc(Cl)ccc3n2S(=O)(=O)c2ccc3c(c2)OCCO3)cc1 [Example 157, 4-[[1-[2,3-dihydro-benzo[1,4]dioxin-6-sulfonyl]-5-(chloro)-1H-indol-2-yl]methyl]benzoic acid]
[1]
  Emax: 64%
  EC50: 0.838 µM
[2]
  Emax: 67%
  EC50: 0.267 µM

## O=C(O)c1ccc(Cc2cc3cc(Cl)ccc3n2S(=O)(=O)c2ccc(C(F)(F)F)cc2)cc1 [Example 158, 4-[[1-[4-trifluoro-phenylsulfonyl]-5-(chloro)-1H-indol-2-yl]methyl]benzoic acid]
[1]
  Emax: 53%
  EC50: 1.26 µM
[2]
  Emax: 66%
  EC50: 0.504 µM

## CCc1ccc(S(=O)(=O)n2c(Cc3ccc(C(=O)O)cc3)cc3cc(Cl)ccc32)cc1 [Example 159, 4-[[1-[4-ethyl-phenylsulfonyl]-5-(chloro)-1H-indol-2-yl]methyl]benzoic acid]
[1]
  Emax: 45%
  EC50: 0.785 µM
[2]
  Emax: 66%
  EC50: 0.319 µM

## O=C(O)c1ccc(Cc2cc3cc(Cl)ccc3n2S(=O)(=O)c2ccc(Cl)cc2)cc1 [Example 160, 4-[[1-[4-chloro-phenylsulfonyl]-5-(chloro)-1H-indol-2-yl]methyl]benzoic acid]
[1]
  Emax: 55%
  EC50: 1.39 µM
[2]
  Emax: 59%
  EC50: 0.462 µM

## Cc1cccc(S(=O)(=O)n2c(Cc3ccc(C(=O)O)cc3)cc3cc(Cl)ccc32)c1 [Example 161, 4-[[5-chloro-1-[(3-methylphenyl)sulfonyl]-1H-indol-2-yl]methyl]benzoic acid]
[1]
  Emax: 40%
  EC50: 0.584 µM
[2]
  Emax: 59%
  EC50: 0.46 µM

## CC(C)Oc1ccc(S(=O)(=O)n2c(Cc3ccc(C(=O)O)cc3)cc3cc(Cl)ccc32)cc1 [Example 162, 4-[[1-[4-isopropoxy-phenylsulfonyl]-5-(chloro)-1H-indol-2-yl]methyl]benzoic acid]
[1]
  Emax: 40%
  EC50: 1.55 µM
[2]
  Emax: 56%
  EC50: 0.692 µM

## O=C(O)c1ccc(Cc2cc3cc(Cl)ccc3n2S(=O)(=O)c2ccc3ccccc3c2)cc1 [Example 163, 4-[[5-chloro-1-(2-naphthalenylsulfonyl)-1H-indol-2-yl]methyl]benzoic acid]
[1]
  Emax: 34%
  EC50: 0.933 µM
[2]
  Emax: 53%
  EC50: 0.427 µM

## O=C(O)c1ccc(Cc2cc3cc(Cl)ccc3n2S(=O)(=O)c2cccc(Cl)c2)cc1 [Example 164, 4-[[1-[3-chloro-phenylsulfonyl]-5-(chloro)-1H-indol-2-yl]methyl]benzoic acid]
[1]
  Emax: 47%
  EC50: 0.851 µM
[2]
  Emax: 53%
  EC50: 0.753 µM

## COc1ccc(S(=O)(=O)n2c(Cc3ccc(C(=O)O)cc3)cc3cc(Cl)ccc32)cc1 [Example 165, 4-[[1-[4-methoxy-phenylsulfonyl]-5-(chloro)-1H-indol-2-yl]methyl]benzoic acid]
[1]
  Emax: 37%
  EC50: 2.93 µM
[2]
  Emax: 51%
  EC50: 1.14 µM

## COc1cccc(S(=O)(=O)n2c(Cc3ccc(C(=O)O)cc3)cc3cc(Cl)ccc32)c1 [Example 166, 4-[[1-[3-methoxy-phenylsulfonyl]-5-(chloro)-1H-indol-2-yl]methyl]benzoic acid]
[1]
  Emax: 27%
  EC50: 1.07 µM
[2]
  Emax: 50%
  EC50: 0.681 µM

## O=C(O)c1ccc(Cc2cc3cc(Cl)ccc3n2S(=O)(=O)c2ccc(F)cc2)cc1 [Example 167, 4-[[1-[4-fluoro-phenylsulfonyl]-5-(chloro)-1H-indol-2-yl]methyl]benzoic acid]
[1]
  Emax: 40%
  EC50: 2.44 µM
[2]
  Emax: 48%
  EC50: 1.15 µM

## CCC(C)(C)c1ccc(S(=O)(=O)n2c(Cc3ccc(C(=O)O)cc3)cc3cc(Cl)ccc32)cc1 [Example 168, 4-[[5-chloro-1-[[4-(1,1-dimethylpropyl)phenyl]sulfonyl]-1H-indol-2-yl]methyl]benzoic acid]
[1]
  Emax: 52%
  EC50: 0.501 µM
[2]
  Emax: 48%
  EC50: 0.422 µM

## COc1ccc(S(=O)(=O)n2c(Cc3ccc(C(=O)O)cc3)cc3cc(Cl)ccc32)cn1 [Example 169, 4-[[5-chloro-1-[(6-methoxy-3-pyridinyl)sulfonyl]-1H-indol-2-yl]methyl]benzoic acid]
[1]
  Emax: 28%
  EC50: 2.49 µM
[2]
  Emax: 46%
  EC50: 1.01 µM

## CCCCCc1ccc(S(=O)(=O)n2c(Cc3ccc(C(=O)O)cc3)cc3cc(Cl)ccc32)cc1 [Example 170, 4-[[1-[4-pentyl-phenylsulfonyl]-5-(chloro)-1H-indol-2-yl]methyl]benzoic acid]
[1]
  Emax: 26%
  EC50: > 10 µM
[2]
  Emax: 42%
  EC50: 1.74 µM

## Cc1ccc(S(=O)(=O)n2c(Cc3ccc(C(=O)O)cc3)cc3cc(Cl)ccc32)cc1 [Example 171, 4-[[5-chloro-1-[(4-methylphenyl)sulfonyl]-1H-indol-2-yl]methyl]benzoic acid]
[1]
  Emax: 31%
  EC50: 0.944 µM
[2]
  Emax: 40%
  EC50: 0.51 µM

## O=C(O)c1ccc(Cc2cc3cc(Cl)ccc3n2S(=O)(=O)c2ccc(-c3cccc(F)c3)cc2)cc1 [Example 172, 4-[[1-[3′-fluoro-biphenyl-4-sulfonyl]-5-(chloro)-1H-indol-2-yl]methyl]benzoic acid]
[1]
  Emax: 47%
  EC50: 0.567 µM
[2]
  Emax: 82%
  EC50: 0.117 µM

## CC1(C)CCc2ccc(S(=O)(=O)n3c(Cc4ccc(C(=O)O)cc4)cc4cc(Cl)ccc43)cc2O1 [Example 173, 4-[[5-chloro-1-[(3,4-dihydro-2,2-dimethyl-2H-1-benzopyran-7-yl)sulfonyl]-1H-indol-2-yl]methyl]-benzoic acid]
[1]
  Emax: 73%
  EC50: 0.498 µM
[2]
  Emax: 78%
  EC50: 0.145 µM

## O=C(O)c1ccc(Cc2cc3cc(Cl)ccc3n2S(=O)(=O)c2ccc3c(c2)OCO3)cc1 [Example 174, 4-[[1-(1.3-benzodioxol-5-ylsulfonyl)-5-chloro-1H-indol-2-yl]methyl]benzoic acid]
[1]
  Emax: 37%
  EC50: 0.813 µM
[2]
  Emax: 47%
  EC50: 0.593 µM

## O=C(O)c1ccc(Cc2cc3cc(Cl)ccc3n2S(=O)(=O)c2ccc(Oc3ccccc3)nc2)cc1 [Example 175, 4-[[5-chloro-1-[(6-phenoxy-3-pyridinyl)sulfonyl]-1H-indol-2-yl]methyl]benzoic acid]
[1]
  Emax: 14%
  EC50: > 10 µM
[2]
  Emax: 38%
  EC50: 0.331 µM

## CCS(=O)(=O)n1c(Cc2ccc(C(=O)O)cc2)cc2cc(Cl)ccc21 [Example 176, 4-[[5-chloro-1-(ethylsulfonyl)-1H-indol-2-yl]methyl]benzoic acid]
[1]
  Emax: 21%
  EC50: > 10 µM
[2]
  Emax: 33%
  EC50: 3.39 µM

## O=C(O)c1ccc(Cc2cc3cc(Cl)ccc3n2S(=O)(=O)c2cc3ccccc3o2)cc1 [Example 177, 4-[[1-[benzofuran-2-sulfonyl]-5-(chloro)-1H-indol-2-yl]methyl]benzoic acid]
[1]
  Emax: 17%
  EC50: > 10 µM
[2]
  Emax: 39%
  EC50: > 10 µM

## O=C(O)c1ccc(Cc2cc3cc(Cl)ccc3n2S(=O)(=O)c2ccc3c(c2)OCCCO3)cc1 [Example 178]
[1]
  Emax: 36%
  EC50: 1.2 µM
[2]
  Emax: 45%
  EC50: 1.03 µM

## O=C(O)c1ccc(Cc2cc3cc(Cl)ccc3n2S(=O)(=O)c2ccc(-c3ccc(F)cc3)cc2)cc1 [Example 179, 4-[[1-[4′-fluoro-biphenyl-4-sulfonyl]-5-(chloro)-1H-indol-2-yl]methyl]benzoic acid]
[1]
  Emax: 26%
  EC50: > 10 µM
[2]
  Emax: 62%
  EC50: 0.331 µM

## CS(=O)(=O)n1c(Cc2ccc(C(=O)O)cc2)cc2cc(Cl)ccc21 [Example 181, 4-[[5-chloro-1-(methylsulfonyl)-1H-indol-2-yl]methyl]benzoic acid]
[1]
  Emax: 152%
  EC50: 4.07 µM
[2]
  Emax: 111%
  EC50: 1.36 µM

## COC(=O)c1ccc(Cc2cc3cc(Cl)ccc3n2S(=O)(=O)c2ccc3c(c2)C(C)(C)CO3)cc1 [Example 182]
[1]
  EC50: 0.154 µM
  hNurr1_RXRγFL Eff (%): 85%
[2]
  EC50: 0.055 µM
  hNurr1_RXRαFL Eff (%): 83%

## CC1(C)COc2ccc(S(=O)(=O)n3c(Cc4ccc(C(=O)O)cc4)cc4cc(Cl)ccc43)cc21 [Example 183]
[1]
  EC50: 0.095 µM
  hNurr1_RXRγFL Eff (%): 91%
[2]
  EC50: 0.047 µM
  hNurr1_RXRαFL Eff (%): 80%

## Cc1c(Cc2cccc(C(=O)O)c2)n(S(=O)(=O)c2cccc(C(C)(C)C)c2)c2ccc(C(F)(F)F)cc12 [Example 186, 3-[[1-[[3-(1,1-dimethylethyl)phenyl]sulfonyl]-3-methyl-5-(trifluoromethyl)-1H-indol-2-yl]methyl]-benzoic acid]
[1]
  Emax: 68%
  EC50: 0.288 µM
[2]
  Emax: 93%
  EC50: 0.124 µM

## Cc1c(Cc2ccc(C(=O)O)cc2)n(S(=O)(=O)c2cccc(C(C)(C)C)c2)c2ccc(C(F)(F)F)cc12 [Example 189, 4-[[1-[[3-(1,1-dimethylethyl)phenyl]sulfonyl]-3-methyl-5-(trifluoromethyl)-1H-indol-2-yl]methyl]-benzoic acid]
[1]
  Emax: 90%
  EC50: 0.263 µM
[2]
  Emax: 83%
  EC50: 0.12 µM

## COC(=O)c1ccc(Cc2cc3cc(C(F)(F)F)ccc3n2S(=O)(=O)c2cccc(C(C)(C)C)c2)s1 [Example 190, 5-[[1-[[3-(1,1-dimethylethyl)-phenyl]sulfonyl]-5-trifluoromethyl-1H-indol-2-yl]-methyl]-thiophene-2-carboxylic acid, methyl ester]
[1]
  Emax: 107%
  EC50: 0.013 µM
[2]
  Emax: 97%
  EC50: 0.0002 µM

Reference: patent publication US20120232070A1, “Use of Indole Derivatives as Nurr-1 Activators for the Application Thereof as a Medicament for the Treatment of Parkinson's Disease” (Laboratoires Fournier SA, priority 2009, published 2012)
